Where “and” joins values, the source holds several entries; their conditions need not be identical. Identical values can stand only once. Like-named read-outs stand apart in the source and are kept apart here.
Key:
[1] = biological target: T1, PKM2 N75L (Homo sapiens, UniProt P14618, N75L); experiment: Ligand binding assay, intrinsic tryptophan fluorescence quenching; details: 1.6 μM PKM2 N75L, no AA ligand; read-out: Kd, ADP as titrant
T1 construct: made in house; host or cells: E. coli BL21(DE3) pLysS
Description: (§1) The decrease of intrinsic tryptophan fluorescence with increasing substrate concentration was measured using a Cary Eclipse Fluorescence Spectrophotometer (Agilent Technologies, Santa Clara, CA). To determine the binding affinity of wtPKM2 and the variants for the AAs mentioned previously, the enzymes were dissolved in the buffer followed by monitoring fluorescence quenching as the AA concentration was increased. The wavelength used to excite PKM2 was set at 295 nm, while the emission wavelength was 340 nm with slit widths of 5 and 10 nm, respectively. The fluorescence intensity values were used to calculate fractional saturation, which was fitted to the one-site specific binding Eq (3), or the Hill Eq (4) using GraphPad Prism (San Diego, CA), Y=Bmax×X/Kd+X (3) Y=Bmax×x^h/Kdh+x^h (4) where Bmax is maximum binding, Y is fractional saturation, h is the Hill coefficient, Kd is dissociation constant, and X is ligand concentration.

[2] = biological target: T2, PKM2 R106A (Homo sapiens, UniProt P14618, R106A); experiment: as above; details: for decrease of affinity for the AA relative to wtPKM2: PKM2 R106A versus wtPKM2; for weakening of ADP binding affinity versus absence of any AAs: PKM2 R106A in the presence of the labelled AA
T2 construct: made in house; host or cells: E. coli BL21(DE3) pLysS
Description: as §1, with “All ligand binding studies were conducted in a buffer containing 1.6 μM enzyme dissolved in 20 mM Tris-HCl (pH 7.5) and 150 mM KCl. […] The decrease” for “The decrease”

[3] = biological target: T3, wtPKM2 (Homo sapiens, UniProt P14618); details: cited from earlier work
T3 construct: made in house; host or cells: E. coli BL21(DE3) pLysS

[4] = biological target: T4, PKM2 N70D (Homo sapiens, UniProt P14618, N70D); experiment: Ligand binding assay, intrinsic tryptophan fluorescence quenching; set-up: made in house; host or cells: E. coli BL21(DE3) pLysS; details: no AA ligand, read-out: Kd, ADP as titrant
Description: as §1, with “All ligand binding studies were conducted in a buffer containing 1.6 μM enzyme dissolved in 20 mM Tris-HCl (pH 7.5) and 150 mM KCl. […] The decrease” for “The decrease”

[5] = biological target: T3, wtPKM2; experiment: PKM2-LDH coupled pyruvate kinase activity assay; assay type: biochemical; details: ADP 0.8 mM; for Vmax / kcat: 10 nM wtPKM2 in presence of 2 mM of the labelled AA, PEP varied
Description: (§3) The decrease in absorbance at 340 nm was recorded for a minute to monitor the progress of the reactions.

[6] = biological target: T1, PKM2 N75L; experiment: PKM2-LDH coupled pyruvate kinase activity assay; assay type: biochemical; details: 4200 nM PKM2 N75L in presence of 2 mM of the labelled AA; PEP 0.025–8 mM, ADP 0.8 mM
Description: as §3

[7] = biological target: T2, PKM2 R106A; experiment: PKM2-LDH coupled pyruvate kinase activity assay; assay type: biochemical; details: for Vmax / kcat: 50 nM PKM2 R106A in presence of 2 mM of the labelled AA (Val 10 mM), PEP 0.025–8 mM, ADP 0.8 mM, Cys data fitted with allosteric sigmoidal equation; for decrease of catalytic efficiency of PKM2 R106A: in the presence of Val (10 mM) and Cys (2 mM), versus no AA
Description: as §3

[8] = biological target: T4, PKM2 N70D; experiment: PKM2-LDH coupled pyruvate kinase activity assay; details: 65 nM PKM2 N70D in presence of 2 mM of the labelled AA; PEP 0.025–8 mM, ADP 0.8 mM
Description: as §3

[9] = biological target: T4, PKM2 N70D; experiment: Gel-filtration study of oligomeric state; set-up: made in house; host or cells: E. coli BL21(DE3) pLysS; details: 0.1 mg/ml PKM2 N70D, 10 mM AA
Description: (§2) The flow rate was kept constant at 0.5 ml/min using an AKTA Pure FPLC system (GE Healthcare Life Sciences, Marlborough, MA). All AA concentrations used in the experiments were fixed at 10 mM. Column calibration was conducted using gel-filtration molecular weight standards (Bio-Rad) containing bovine thyroglobulin (670 kDa), bovine γ-globulin (158 kDa), chicken ovalbumin (44 kDa), horse myoglobin (17 kDa), and vitamin B12 (1.35 kDa). The eluted protein peak was observed using UV absorbance at 280 nm. To normalize the lowest and highest intensity value, they were set to 0% and 100%, respectively, which was plotted against elution volume in GraphPad Prism (San Diego, CA).

[10] = biological target: T1, PKM2 N75L; experiment: Gel-filtration study of oligomeric state; details: 0.1 mg/ml PKM2 N75L, 10 mM AA
Description: as §2

[11] = biological target: T2, PKM2 R106A; experiment: Gel-filtration study of oligomeric state; details: 0.1 mg/ml PKM2 R106A, 10 mM AA
Description: as §2

[12] = biological target: T3, wtPKM2; experiment: Gel-filtration study of oligomeric state; details: 0.1 mg/ml wtPKM2, 10 mM AA
Description: as §2

[13] = biological target: T3, wtPKM2; set-up: method as in PMID 32144209; details: wtPKM2 in the presence of Val; cited from earlier work
[14] = 2 mM AA, 10 nM enzyme, PEP 0.15–8 mM, versus no AA
[15] = 1.6 μM PKM2 R106A, read-out: Kd for the AA (AA as titrant)

T1 sequence (P14618 whole entry N75L): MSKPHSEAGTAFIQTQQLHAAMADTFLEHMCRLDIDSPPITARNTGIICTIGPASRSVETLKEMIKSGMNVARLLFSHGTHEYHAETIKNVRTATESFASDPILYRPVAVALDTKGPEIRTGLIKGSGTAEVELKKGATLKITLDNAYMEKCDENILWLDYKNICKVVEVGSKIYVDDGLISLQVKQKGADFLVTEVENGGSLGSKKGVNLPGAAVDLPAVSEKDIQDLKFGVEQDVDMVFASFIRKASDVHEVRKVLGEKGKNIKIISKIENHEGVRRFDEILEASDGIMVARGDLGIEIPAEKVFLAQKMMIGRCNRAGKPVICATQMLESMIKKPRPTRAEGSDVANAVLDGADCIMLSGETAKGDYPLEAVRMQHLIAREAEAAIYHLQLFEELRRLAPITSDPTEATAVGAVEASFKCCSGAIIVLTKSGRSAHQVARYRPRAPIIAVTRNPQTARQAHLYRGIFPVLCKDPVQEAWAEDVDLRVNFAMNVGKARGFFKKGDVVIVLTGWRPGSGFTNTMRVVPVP
T4 sequence (P14618 whole entry N70D): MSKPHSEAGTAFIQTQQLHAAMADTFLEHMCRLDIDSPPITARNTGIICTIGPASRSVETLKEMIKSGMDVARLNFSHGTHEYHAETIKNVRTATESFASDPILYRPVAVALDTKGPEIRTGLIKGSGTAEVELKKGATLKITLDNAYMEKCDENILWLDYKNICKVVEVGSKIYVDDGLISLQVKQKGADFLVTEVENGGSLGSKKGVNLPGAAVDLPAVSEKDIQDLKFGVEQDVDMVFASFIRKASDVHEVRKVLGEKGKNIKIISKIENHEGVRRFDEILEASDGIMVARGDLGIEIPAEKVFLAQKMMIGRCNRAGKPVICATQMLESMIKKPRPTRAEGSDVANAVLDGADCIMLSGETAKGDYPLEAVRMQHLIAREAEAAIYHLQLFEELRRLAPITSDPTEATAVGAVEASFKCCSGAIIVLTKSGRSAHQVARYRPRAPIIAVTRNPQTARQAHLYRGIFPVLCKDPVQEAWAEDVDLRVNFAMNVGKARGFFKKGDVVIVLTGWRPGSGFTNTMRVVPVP
T3 sequence (P14618 whole entry): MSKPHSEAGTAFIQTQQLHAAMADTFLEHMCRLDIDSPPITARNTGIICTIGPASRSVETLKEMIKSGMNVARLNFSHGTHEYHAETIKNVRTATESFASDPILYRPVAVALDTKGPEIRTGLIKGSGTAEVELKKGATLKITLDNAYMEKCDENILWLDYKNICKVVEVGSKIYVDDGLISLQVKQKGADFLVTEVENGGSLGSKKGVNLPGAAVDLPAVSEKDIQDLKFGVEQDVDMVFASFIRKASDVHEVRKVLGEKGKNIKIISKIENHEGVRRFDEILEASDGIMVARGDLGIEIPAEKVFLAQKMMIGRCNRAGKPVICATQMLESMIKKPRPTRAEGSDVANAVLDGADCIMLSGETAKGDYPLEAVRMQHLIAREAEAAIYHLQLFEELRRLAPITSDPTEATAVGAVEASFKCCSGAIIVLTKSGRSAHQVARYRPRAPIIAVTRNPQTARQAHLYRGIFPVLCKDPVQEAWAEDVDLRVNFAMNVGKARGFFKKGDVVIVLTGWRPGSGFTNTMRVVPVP
T2 sequence (P14618 whole entry R106A): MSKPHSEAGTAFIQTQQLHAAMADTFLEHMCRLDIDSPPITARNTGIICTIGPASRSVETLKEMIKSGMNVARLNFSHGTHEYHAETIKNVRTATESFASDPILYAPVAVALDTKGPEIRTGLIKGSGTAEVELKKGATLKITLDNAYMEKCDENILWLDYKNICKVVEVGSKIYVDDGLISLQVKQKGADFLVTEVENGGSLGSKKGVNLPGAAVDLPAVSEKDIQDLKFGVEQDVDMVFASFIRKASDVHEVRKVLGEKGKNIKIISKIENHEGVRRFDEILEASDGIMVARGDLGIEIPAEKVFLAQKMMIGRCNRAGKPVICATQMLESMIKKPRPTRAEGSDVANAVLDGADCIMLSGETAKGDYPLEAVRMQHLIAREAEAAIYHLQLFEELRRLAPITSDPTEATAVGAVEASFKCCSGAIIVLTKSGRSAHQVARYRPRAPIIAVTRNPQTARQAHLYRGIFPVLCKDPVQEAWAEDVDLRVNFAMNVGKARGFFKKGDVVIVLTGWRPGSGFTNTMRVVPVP

Row | Vmax [5] | kcat [5] | Vmax [6] | kcat [6] | Vmax [7] | kcat [7] | decrease of affinity for the AA relative to wtPKM2 [2] | Vmax [8] | kcat [8] | oligomeric state change [9] | Kd [2, 15] | SMILES | other results
1 | – | – | – | – | – | – | – | – | – | – | – | Nc1ncnc2c1ncn2[C@@H]1O[C@H](COP(=O)(O)OP(=O)(O)O)[C@@H](O)[C@H]1O [ADP, adenosine diphosphate] | Kd [1]: 449 ± 48 µM; Kd ([2]; 1.6 μM PKM2 R106A, no AA ligand, read-out: Kd, ADP as titrant): 257 ± 24 µM; Kd ([3]; […] wtPKM2, no AA ligand, marked (2) in S2 Table, read-out: Kd, ADP as titrant): 237 ± 54 µM; Kd [4]: 644 ± 154 µM
2 | 113 ± 4 µM/min | 11.3±0.4 ×10^3 min^-1 | 50 ± 2 µM/min | 0.012±0.0 ×10^3 min^-1 | 318 ± 8 µM/min | 6.3±0.2 ×10^3 min^-1 | 2–4 fold | 340 ± 8 µM/min | 5.2±0.3 ×10^3 min^-1 | dimer/monomer fraction decreased | – | NC(=O)C[C@H](N)C(=O)O [Asn, asparagine] | increase of kcat/Km of wtPKM2 [5, 14]: ~ 8 fold; Kd ([2]; […] PKM2 R106A, read-out: Kd for the AA (AA as titrant)): 42 ± 10 µM
3 | 104 ± 2 µM/min | 10.4±0.2 ×10^3 min^-1 | 51 ± 3 µM/min | 0.012±0.0 ×10^3 min^-1 | 295 ± 6 µM/min | 5.9±0.1 ×10^3 min^-1 | – | 307 ± 10 µM/min | 4.7±0.1 ×10^3 min^-1 | dimer/monomer fraction decreased | ~70 µM | N[C@@H](CC(=O)O)C(=O)O [Asp, aspartate] | –
4 | 65 ± 7 µM/min | 6.5±0.7 ×10^3 min^-1 | 33 ± 3 µM/min | 0.008±0.0 ×10^3 min^-1 | 291 ± 9 µM/min | 5.8±0.2 ×10^3 min^-1 | 2–4 fold | 334 ± 15 µM/min | 5.1±0.2 ×10^3 min^-1 | did not change the oligomeric state | 36 µM | N[C@@H](CS)C(=O)O [Cys, cysteine] | decrease of kcat/Km of wtPKM2 [5, 14]: ~ 4 fold; decrease of catalytic efficiency of PKM2 R106A [7]: 2–7 fold; weakening of ADP binding affinity versus absence of any AAs [2]: ~ 10 fold; oligomeric state change [10]: the dimer/monomer fraction increased; oligomeric state change [11]: resulted in a mixture of tetramer and dimer/monomer equilibrium; oligomeric state change [12]: shift from an active tetramer to a mixture of tetramer and dimer/monomer equilibrium
5 | – | – | – | – | – | – | – | – | – | – | – | O=C(COP(=O)(O)O)[C@@H](O)[C@H](O)[C@H](O)COP(=O)(O)O [FBP, fructose-1,6-bisphosphate] | Kd ([3]; wtPKM2, read-out: Kd for FBP): 0.00098 µM and 0.001 µM
6 | – | – | – | – | – | – | – | – | – | – | – | C=C(OP(=O)(O)O)C(=O)O [PEP, phosphoenolpyruvate] | Kd ([3]; read-out: Kd, PEP as titrant, […] wtPKM2, no AA ligand, marked (2) in S2 Table): 10 ± 2 µM
7 | 74 ± 5 µM/min | 7.4±0.5 ×10^3 min^-1 | 34 ± 2 µM/min | 0.008±0.0 ×10^3 min^-1 | 346 ± 12 µM/min | 6.9±0.2 ×10^3 min^-1 | 2–4 fold | 324 ± 37 µM/min | 4.9±0.6 ×10^3 min^-1 | did not change the oligomeric state | ~1600 µM | CC(C)[C@H](N)C(=O)O [Val, valine] | decrease of kcat/Km of wtPKM2 [5, 14]: ~ 4 fold; decrease of catalytic efficiency of PKM2 R106A [7]: 2–7 fold; weakening of ADP binding affinity versus absence of any AAs [2]: ~ 10 fold; oligomeric state change [10]: the dimer/monomer fraction increased; oligomeric state change [11]: resulted in a mixture of tetramer and dimer/monomer equilibrium; oligomeric state change [13]: shift from an active tetramer to a mixture of tetramer and dimer/monomer equilibrium

Source: publication PMC10004559, “Identification of residues involved in allosteric signal transmission from amino acid binding site of pyruvate kinase muscle isoform 2” (PLOS ONE, 2023)
